Assay results from PubChem BioAssay (NCI).
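Compound exposure: 48 hours, 5 concentrations, 96-well plates. TGI: concentration producing complete growth inhibition.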

Experiments:
Assay in all cases: NCI tumour cell line growth inhibition, 48 h
OVCAR-3 ovarian = test system: OVCAR-3 ovarian
LOX IMVI melanoma = test system: LOX IMVI melanoma
K-562 leukemia = test system: K-562 leukemia
OVCAR-4 ovarian = test system: OVCAR-4 ovarian
DLD-1 colon = test system: DLD-1 colon
KM12 colon = test system: KM12 colon
SK-OV-3 ovarian = test system: SK-OV-3 ovarian
MALME-3M melanoma = test system: MALME-3M melanoma
A549 NSCLC = test system: A549 NSCLC
SF-268 CNS = test system: SF-268 CNS
SF-295 CNS = test system: SF-295 CNS
NCI-H226 lung = test system: NCI-H226 lung
UACC-62 melanoma = test system: UACC-62 melanoma
MOLT-4 leukemia = test system: MOLT-4 leukemia
786-0 renal = test system: 786-0 renal
HCT-116 colon = test system: HCT-116 colon
HCT-15 colon = test system: HCT-15 colon
A498 renal = test system: A498 renal
TK-10 renal = test system: TK-10 renal
CCRF-CEM leukemia = test system: CCRF-CEM leukemia
M14 melanoma = test system: M14 melanoma
ACHN renal = test system: ACHN renal
RXF 393 renal = test system: RXF 393 renal
IGROV1 ovarian = test system: IGROV1 ovarian
HOP-92 NSCLC = test system: HOP-92 NSCLC
HOP-62 NSCLC = test system: HOP-62 NSCLC
SNB-75 CNS = test system: SNB-75 CNS
SK-MEL-28 melanoma = test system: SK-MEL-28 melanoma
U251 CNS = test system: U251 CNS
COLO 205 colon = test system: COLO 205 colon
DMS 273 small cell lung = test system: DMS 273 small cell lung
RPMI-8226 leukemia = test system: RPMI-8226 leukemia
DMS 114 small cell lung = test system: DMS 114 small cell lung
M19-MEL melanoma = test system: M19-MEL melanoma
SK-MEL-2 melanoma = test system: SK-MEL-2 melanoma
NCI-H23 lung = test system: NCI-H23 lung
NCI-H460 lung = test system: NCI-H460 lung
HT29 colon = test system: HT29 colon
HCC-2998 colon = test system: HCC-2998 colon
SN12C renal = test system: SN12C renal
SW-620 colon = test system: SW-620 colon
OVCAR-8 ovarian = test system: OVCAR-8 ovarian
SNB-19 CNS = test system: SNB-19 CNS
SK-MEL-5 melanoma = test system: SK-MEL-5 melanoma
RXF-631 renal = test system: RXF-631 renal
CAKI-1 renal = test system: CAKI-1 renal
OVCAR-5 ovarian = test system: OVCAR-5 ovarian
EKVX NSCLC = test system: EKVX NSCLC
UO-31 renal = test system: UO-31 renal
UACC-257 melanoma = test system: UACC-257 melanoma
HOP-18 NSCLC = test system: HOP-18 NSCLC
SF-539 CNS = test system: SF-539 CNS
HL-60(TB) leukemia = test system: HL-60(TB) leukemia
NCI-H522 lung = test system: NCI-H522 lung
KM20L2 colon = test system: KM20L2 colon
LXFL 529 NSCLC = test system: LXFL 529 NSCLC
SR leukemia = test system: SR leukemia
SNB-78 CNS = test system: SNB-78 CNS

Cc1nc2ccccc2c(=O)n1/N=C(\N=Nc1cc(Cl)ccc1Cl)c1cccc(-c2ccco2)c1
TGI (OVCAR-3 ovarian): > 100 µM
TGI (LOX IMVI melanoma): > 100 µM
TGI (K-562 leukemia): > 10 µM
TGI (OVCAR-4 ovarian): > 100 µM
TGI (DLD-1 colon): > 100 µM
TGI (KM12 colon): > 100 µM
TGI (SK-OV-3 ovarian): > 100 µM
TGI (MALME-3M melanoma): > 100 µM
TGI (A549 NSCLC): > 100 µM
TGI (SF-268 CNS): > 100 µM
TGI (SF-295 CNS): > 100 µM
TGI (NCI-H226 lung): > 100 µM
TGI (UACC-62 melanoma): > 100 µM
TGI (MOLT-4 leukemia): > 100 µM
TGI (786-0 renal): > 100 µM
TGI (HCT-116 colon): > 100 µM
TGI (HCT-15 colon): > 100 µM
TGI (A498 renal): > 100 µM
TGI (TK-10 renal): > 100 µM
TGI (CCRF-CEM leukemia): > 10 µM
TGI (M14 melanoma): > 100 µM
TGI (ACHN renal): > 100 µM
TGI (RXF 393 renal): > 100 µM
TGI (IGROV1 ovarian): > 100 µM
TGI (HOP-92 NSCLC): 99.5 µM
TGI (HOP-62 NSCLC): > 100 µM
TGI (SNB-75 CNS): > 100 µM
TGI (SK-MEL-28 melanoma): > 100 µM
TGI (U251 CNS): > 100 µM
TGI (COLO 205 colon): > 100 µM
TGI (DMS 273 small cell lung): > 100 µM
TGI (RPMI-8226 leukemia): > 100 µM
TGI (DMS 114 small cell lung): > 100 µM
TGI (M19-MEL melanoma): > 100 µM
TGI (SK-MEL-2 melanoma): > 100 µM
TGI (NCI-H23 lung): > 100 µM
TGI (NCI-H460 lung): > 100 µM
TGI (HT29 colon): > 100 µM
TGI (HCC-2998 colon): > 100 µM
TGI (SN12C renal): > 100 µM
TGI (SW-620 colon): > 100 µM
TGI (OVCAR-8 ovarian): > 100 µM
TGI (SNB-19 CNS): > 100 µM
TGI (SK-MEL-5 melanoma): > 100 µM
TGI (RXF-631 renal): > 100 µM
TGI (CAKI-1 renal): > 100 µM
TGI (OVCAR-5 ovarian): > 100 µM
TGI (EKVX NSCLC): > 100 µM
TGI (UO-31 renal): > 100 µM
TGI (UACC-257 melanoma): > 100 µM
TGI (HOP-18 NSCLC): > 100 µM
TGI (SF-539 CNS): > 100 µM
TGI (HL-60(TB) leukemia): > 10 µM

COc1ccc(CN2C(=O)C(Cc3cc(OC)c(OC)c(C)c3OC)NC(=O)/C2=C/c2cc(OC)c(OC)c(C)c2OC)cc1 (configuration not stated)
TGI (OVCAR-3 ovarian): 82.2 µM
TGI (LOX IMVI melanoma): > 100 µM
TGI (K-562 leukemia): > 100 µM
TGI (OVCAR-4 ovarian): 82.5 µM
TGI (NCI-H522 lung): 50 µM
TGI (DLD-1 colon): > 100 µM
TGI (KM12 colon): > 100 µM
TGI (SK-OV-3 ovarian): > 100 µM
TGI (MALME-3M melanoma): 67.8 µM
TGI (A549 NSCLC): > 100 µM
TGI (SF-268 CNS): > 100 µM
TGI (SF-295 CNS): > 100 µM
TGI (NCI-H226 lung): 60.2 µM
TGI (UACC-62 melanoma): > 100 µM
TGI (MOLT-4 leukemia): 60.6 µM
TGI (786-0 renal): > 100 µM
TGI (HCT-116 colon): 60.7 µM
TGI (A498 renal): 97.6 µM
TGI (TK-10 renal): 83.1 µM
TGI (CCRF-CEM leukemia): 71.1 µM
TGI (M14 melanoma): 96.9 µM
TGI (ACHN renal): > 100 µM
TGI (RXF 393 renal): 71.2 µM
TGI (IGROV1 ovarian): > 100 µM
TGI (HOP-92 NSCLC): 67.7 µM
TGI (HOP-62 NSCLC): > 100 µM
TGI (SNB-75 CNS): > 100 µM
TGI (SK-MEL-28 melanoma): > 100 µM
TGI (U251 CNS): > 100 µM
TGI (COLO 205 colon): 47.4 µM
TGI (RPMI-8226 leukemia): 70.2 µM
TGI (KM20L2 colon): 59.2 µM
TGI (DMS 114 small cell lung): 97.3 µM
TGI (M19-MEL melanoma): 37.7 µM
TGI (SK-MEL-2 melanoma): 43.2 µM
TGI (NCI-H23 lung): > 100 µM
TGI (NCI-H460 lung): 57 µM
TGI (HT29 colon): 66.2 µM
TGI (HCC-2998 colon): 90.9 µM
TGI (SN12C renal): > 100 µM
TGI (SW-620 colon): > 100 µM
TGI (OVCAR-8 ovarian): > 100 µM
TGI (SK-MEL-5 melanoma): 34.5 µM
TGI (RXF-631 renal): > 100 µM
TGI (OVCAR-5 ovarian): > 100 µM
TGI (LXFL 529 NSCLC): > 100 µM
TGI (EKVX NSCLC): > 100 µM
TGI (UO-31 renal): 74 µM
TGI (UACC-257 melanoma): > 100 µM
TGI (HOP-18 NSCLC): 65.2 µM
TGI (SR leukemia): 60.7 µM
TGI (SF-539 CNS): > 100 µM
TGI (HL-60(TB) leukemia): 45.8 µM

O=C(Cc1nc2ccccc2c(=O)n1-c1c(Cl)cccc1Cl)c1ccncc1
TGI (OVCAR-3 ovarian): 77.8 µM
TGI (LOX IMVI melanoma): > 10 µM
TGI (K-562 leukemia): > 100 µM
TGI (OVCAR-4 ovarian): 80.7 µM
TGI (NCI-H522 lung): 49.5 µM
TGI (DLD-1 colon): > 100 µM
TGI (KM12 colon): 32.3 µM
TGI (SK-OV-3 ovarian): > 100 µM
TGI (MALME-3M melanoma): 56.2 µM
TGI (A549 NSCLC): 46.9 µM
TGI (SF-268 CNS): > 100 µM
TGI (SF-295 CNS): 36.5 µM
TGI (NCI-H226 lung): > 10 µM
TGI (UACC-62 melanoma): 56.6 µM
TGI (MOLT-4 leukemia): 42.2 µM
TGI (786-0 renal): 88.9 µM
TGI (HCT-116 colon): 39.7 µM
TGI (HCT-15 colon): > 100 µM
TGI (A498 renal): 72.3 µM
TGI (TK-10 renal): > 10 µM
TGI (CCRF-CEM leukemia): 45.2 µM
TGI (M14 melanoma): > 100 µM
TGI (SNB-78 CNS): > 100 µM
TGI (ACHN renal): 42.4 µM
TGI (RXF 393 renal): 65.7 µM
TGI (IGROV1 ovarian): 49.7 µM
TGI (HOP-92 NSCLC): 69.8 µM
TGI (HOP-62 NSCLC): 47.9 µM
TGI (SNB-75 CNS): 68.2 µM
TGI (SK-MEL-28 melanoma): 43.6 µM
TGI (U251 CNS): > 100 µM
TGI (COLO 205 colon): 33.6 µM
TGI (DMS 273 small cell lung): 40.6 µM
TGI (KM20L2 colon): 85.9 µM
TGI (DMS 114 small cell lung): 78.6 µM
TGI (M19-MEL melanoma): 39.6 µM
TGI (SK-MEL-2 melanoma): 46.3 µM
TGI (NCI-H23 lung): > 100 µM
TGI (NCI-H460 lung): 52.2 µM
TGI (HT29 colon): 45.8 µM
TGI (HCC-2998 colon): 44.2 µM
TGI (SN12C renal): > 100 µM
TGI (SW-620 colon): > 100 µM
TGI (OVCAR-8 ovarian): > 100 µM
TGI (SNB-19 CNS): > 100 µM
TGI (SK-MEL-5 melanoma): 29.4 µM
TGI (RXF-631 renal): 63.3 µM
TGI (CAKI-1 renal): 86.1 µM
TGI (LXFL 529 NSCLC): > 100 µM
TGI (EKVX NSCLC): > 100 µM
TGI (UO-31 renal): 55 µM
TGI (UACC-257 melanoma): 54.3 µM
TGI (HOP-18 NSCLC): 93.1 µM
TGI (SR leukemia): 39.8 µM
TGI (SF-539 CNS): 34.5 µM
TGI (HL-60(TB) leukemia): 30.6 µM
